# Counter-ions that a name gives are not always drawn.
# Experiments:
# [1] = molecular target: T1, proMMP9(20-445;ΔFnII) (SEQ ID NO:6) (Homo sapiens, UniProt P14780, DEL216-390); assay: ThermoFluor binding assay with proMMP9(20-445;ΔFnII)
# T1 construct: start methionine (N); made in house; host or cells: E. coli BL21(DE3) RIL
# T1 sequence (P14780 with tags, fused parts or gaps DEL216-390): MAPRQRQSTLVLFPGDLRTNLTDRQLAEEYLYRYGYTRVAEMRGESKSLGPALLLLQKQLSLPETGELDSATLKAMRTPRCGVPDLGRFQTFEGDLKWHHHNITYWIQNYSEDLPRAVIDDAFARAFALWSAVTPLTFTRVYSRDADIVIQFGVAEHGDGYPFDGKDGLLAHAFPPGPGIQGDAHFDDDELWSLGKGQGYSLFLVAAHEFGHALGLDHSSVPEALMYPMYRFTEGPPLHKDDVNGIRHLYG
# How it was run: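 Protein thermal stability was measured with 2.8 μM proMMP9(20-445;ΔFnII) and 50 μM 1,8-ANS in 50 mM HEPES pH 7.0, 100 mM NaCl, 0.001% Tween-20, 2.5 mM MgCl2, 300 μM CaCl2, across serial compound dilutions. Samples were heated 40–90° C at 1° C/min with fluorescence read at 500 nm. Tm was fitted, and binding was derived from thermodynamic parameters obtained by DSC and ThermoFluor.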
# [2] = molecular target: T2, proMMP9(67-444;ΔFnII) (SEQ ID NO:5) (Homo sapiens, UniProt P14780, DEL216-390); assay: ThermoFluor binding assay with proMMP9(67-444;ΔFnII)
# T2 construct: start methionine (N); made in house; host or cells: E. coli BL21(DE3) RIL
# T2 sequence (P14780 with tags, fused parts or gaps DEL216-390): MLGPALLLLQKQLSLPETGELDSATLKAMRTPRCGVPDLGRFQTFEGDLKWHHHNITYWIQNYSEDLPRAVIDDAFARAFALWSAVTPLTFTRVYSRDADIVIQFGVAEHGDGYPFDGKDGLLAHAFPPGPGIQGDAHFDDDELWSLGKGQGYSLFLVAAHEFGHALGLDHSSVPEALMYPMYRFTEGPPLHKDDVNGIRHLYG
# How it was run: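 Thermal shift of 3.5 μM proMMP9(67-444;ΔFnII), desalted beforehand, with 50 μM 1,8-ANS in 50 mM HEPES pH 7.0, 100 mM NaCl, 2.5 mM MgCl2, 300 μM CaCl2, 0.001% Tween-20. Heated 40–90 °C at 1 °C/min, fluorescence read at 500 nm; binding fitted from Tm shifts using DSC- and ThermoFluor-derived unfolding parameters.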
# [3] = molecular target: T3, proMMP13(1-268) (SEQ ID NO:7) (Homo sapiens, UniProt P45452); assay: ThermoFluor binding assay with proMMP13(1-268)
# T3 construct: 6xHis (C); made in house; host or cells: HEK293 (transient, secreted)
# Method: The ThermoFluor® (TF) assay is a 384-well plate-based binding assay that measures thermal stability of proteins (Biomol Screen 2001, 6, 429-40; Biochemistry 2005, 44, 5258-66). The experiments were carried out using instruments available from Johnson & Johnson Pharmaceutical Research & Development, LLC. TF dye used in all experiments was […] (1,8-ANS) (Invitrogen: A-47).
# Compounds were arranged in a pre-dispensed plate (Greiner Bio-one: 781280), wherein compounds were serially diluted in 100% DMSO across 11 columns within a series. Columns 12 and 24 were used as DMSO reference and contained no compound. For multiple compound concentration-response experiments, the compound aliquots (50 nL) were robotically predispensed directly into black 384-well polypropylene PCR microplates (Abgene: TF-0384/k) using a Cartesian Hummingbird liquid handler (DigiLab, Holliston, Mass.). Following compound dispense, protein and dye solutions were added to achieve the final assay volume of 3 μL. The assay solutions were overlayed with 1 μL of silicone oil (Fluka, type DC 200: 85411) to prevent evaporation.
# Assay plates were robotically loaded onto a thermostatically controlled PCR-type thermal block and then heated from 40 to 90° C. at a ramp-rate of 1° C./min for all experiments. Fluorescence was measured by continuous illumination with UV light (Hamamatsu LC6) supplied via fiber optics and filtered through a band-pass filter (380-400 nm; >60D cutoff). Fluorescence emission of the entire 384-well plate was detected by measuring light intensity using a CCD camera (Sensys, Roper Scientific) filtered to detect 500±25 nm, resulting in simultaneous and independent readings of all 384 wells. A single image with 20-sec exposure time was collected at each temperature, and the sum of the pixel intensity in a given area of the assay plate was recorded vs temperature and fit to standard equations to yield the Tm (J Biomol Screen 2001, 6, 429-40).
# Thermodynamic parameters necessary for fitting compound binding for each proMMP were estimated by differential scanning calorimetry (DSC) and from ThermoFluor® data. The heat capacity of unfolding for each protein was estimated from the molecular weight and from ThermoFluor® dosing data.
# ThermoFluor® with proMMP13(1-268) (SEQ ID NO: 7)
# The proMMP13(1-268) (SEQ ID NO:7) protein sample preparations included a desalting buffer exchange step via a PD-10 gravity column (GE Healthcare). The desalting buffer exchange was performed prior to diluting the protein to the final assay concentration of 3.5 μM. The concentration of proMMP13(1-268) (SEQ ID NO:7) was estimated spectrophotometrically based on a calculated extinction coefficient of ε280=37000 M^−1 cm^−1, a calculated molecular weight of 30.8 kDa, and calculated pI of 5.33. ThermoFluor® reference conditions were defined as follows: 100 μg/mL proMMP13(1-268) (SEQ ID NO:7), 25 μM 1,8-ANS, pH 7.0 Buffer (50 mM HEPES pH 7.0, 100 mM NaCl, 0.001% Tween-20, 2.5 mM MgCl2, 300 μM CaCl2). The thermodynamic parameters for proMMP13(1-268) (SEQ ID NO:7) are as follows: Tm (° C.)=67 (+/−0.1), ΔUH(Tm)) (cal mol^−1)=107000(+/−5000), ΔUSTm (cal mol^−1 K^−1)=318, ΔUCp (cal mol^−1 K^−1)=2600.
# [4] = molecular target: T4, full-length proMMP9(1-707) activation by catalytic MMP3 (Homo sapiens, UniProt P14780, R574P); assay: proMMP9/MMP3 P126 Activation Assay; format: biochemical
# T4 construct: made in house; host or cells: proMMP9: HEK293 (secreted); MMP3: E. coli
# T4 sequence (P14780 20-707 R574P): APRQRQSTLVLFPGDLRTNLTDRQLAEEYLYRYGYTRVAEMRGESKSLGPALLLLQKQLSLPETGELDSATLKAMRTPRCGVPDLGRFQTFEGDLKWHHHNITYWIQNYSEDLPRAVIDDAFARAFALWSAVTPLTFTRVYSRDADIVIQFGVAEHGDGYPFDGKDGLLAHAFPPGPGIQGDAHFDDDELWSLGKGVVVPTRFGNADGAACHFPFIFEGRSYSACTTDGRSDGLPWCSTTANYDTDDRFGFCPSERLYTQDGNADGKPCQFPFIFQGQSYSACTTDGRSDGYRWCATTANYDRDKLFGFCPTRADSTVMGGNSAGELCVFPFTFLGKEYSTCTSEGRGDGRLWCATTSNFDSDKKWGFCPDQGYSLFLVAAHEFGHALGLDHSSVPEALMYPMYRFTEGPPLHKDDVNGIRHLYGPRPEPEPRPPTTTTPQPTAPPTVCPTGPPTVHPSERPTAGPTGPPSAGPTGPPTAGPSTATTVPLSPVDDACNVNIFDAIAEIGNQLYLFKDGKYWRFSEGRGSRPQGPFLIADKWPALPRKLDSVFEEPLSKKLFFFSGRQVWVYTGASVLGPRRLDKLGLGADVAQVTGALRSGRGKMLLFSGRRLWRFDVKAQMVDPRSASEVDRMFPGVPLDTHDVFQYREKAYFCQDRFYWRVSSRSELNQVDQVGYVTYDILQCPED
# Method: proMMP9/MMP3 P126 Activation Assay
# The reaction volume was 50 μL. […] Reactivity of residual MMP3 towards P-126 substrate was minimal under these conditions.
SMILES,Kd [1],Kd [2],Kd [3],IC50 [4]
"Cc1nc2c(ccc3sc(Nc4cc(C(=O)O)ccc4OC(C)C)nc32)[nH]1 [Example 20, 4-Isopropoxy-3-(7-methyl-6H-imidazo[4′,5′:3,4]-benzo[2,1-d]thiazol-2-ylamino)-benzoic acid.HCl]",1400 nM,190 nM,1900 nM,240 nM
"Cc1nc2ccc3sc(Nc4cc(C(=O)O)ccc4OC(C)C)nc3c2s1 [Example 24, 4-Isopropoxy-3-(2-methyl-benzo[1,2-d;3,4-d′]bisthiazol-7-ylamino)-benzoic acid.HCl]",1200 nM,520 nM,8400 nM,380 nM
"CC(C)Oc1ccc(C(N)=O)cc1Nc1nc2c(ccc3nc(C(=O)N4CCN(C)CC4)[nH]c32)s1 [Example 26, 4-Isopropoxy-3-[7-(4-methyl-piperazine-1-carbonyl)-8H imidazo[4′,5′:3,4]benzo[2,1-d]thiazol-2-ylamino]-benzamide.HCl]",850 nM,700 nM,6100 nM,710 nM
"CC(C)Oc1ccc(S(N)(=O)=O)cc1Nc1nc2c(ccc3c2ncn3C)s1 [Example 28, 4-Isopropoxy-3-(6-methyl-6H-imidazo[4′,5′:3,4]benzo[2,1-d]thiazol-2-ylamino)-benzenesulfonamide.HCl]",880 nM,2200 nM,3500 nM,180 nM
"CC(C)Oc1ccc(C(N)=O)cc1Nc1nc2c(ccc3[nH]cnc32)s1 [Example 29, 3-(6H-Imidazo[4′,5′:3,4]-benzo[2,1-d]thiazol-2-ylamino)-4-isopropoxy-benzamide.HCl]",800 nM,630 nM,1400 nM,550 nM
"CC(C)Oc1ccc(C(N)=O)cc1Nc1nc2c(ccc3[nH]c(N4CCN(C)CC4)nc32)s1 [Example 31, 4-Isopropoxy-3-[7-(4-methyl-piperazin-1-yl)-6H-imidazo[4′,5′:3,4]benzo[2,1-d]thiazol-2-ylamino]-benzamide.HCl]",930 nM,820 nM,2300 nM,820 nM
"CC(C)Oc1ccccc1Nc1nc2c(ccc3c2ncn3C)s1 [Example 32, (2-Isopropoxy-phenyl)-(6-methyl-6H-imidazo[4′,5′:3,4]benzo[2,1-d]thiazol-2-yl)-amine.HCl]",3700 nM,540 nM,9200 nM,350 nM
"CCOc1ccccc1Nc1nc2c(ccc3c2ncn3C)s1 [Example 37, (2-Ethoxy-phenyl)-(6-methyl-6H-imidazo[4′,5′:3,4]benzo[2,1-d]thiazol-2-yl)-amine.HCl]",2300 nM,360 nM,5900 nM,310 nM
"Cc1cc2ccc3sc(Nc4cc(C(N)=O)ccc4OC(C)C)nc3c2o1 [Example 38, 4-Isopropoxy-3-(7-methyl-8-oxa-3-thia-1-aza-as-indacen-2-ylamino)-benzamide.HCl]",1000 nM,950 nM,1400 nM,1500 nM
"COc1ccc(Cl)cc1Nc1nc2c(ccc3c2ncn3C)s1 [Example 40, (5-Chloro-2-methoxy-phenyl)-(6-methyl-6H-imidazo[4′,5′:3,4]benzo[2,1-d]thiazol-2-yl)-amine.HCl]",830 nM,100 nM,1600 nM,170 nM

# These reach a lower Kd [1]. Values come first.
Kd [1],Kd [2],Kd [3],IC50 [4],SMILES
590 nM,970 nM,3000 nM,840 nM,"CC(C)Oc1ccc(C(N)=O)cc1Nc1nc2c(ccc3[nH]c(=O)[nH]c32)s1 [Example 23, 4-Isopropoxy-3-(7-oxo-7,8-dihydro-6H-imidazo[4′,5′:3,4]benzo[2,1-d]thiazol-2-ylamino)-benzamide.TFA]"
440 nM,52 nM,1500 nM,94 nM,"COc1ccc(C(N)=O)cc1Nc1nc2c(ccc3c2ncn3C)s1 [Example 39, 4-Methoxy-3-(6-methyl-6H-imidazo[4′,5′:3,4]benzo[2,1-d]thiazol-2-ylamino)-benzamide.HCl]"
430 nM,200 nM,2700 nM,490 nM,"CC(C)Oc1ccc(C(N)=O)cc1Nc1nc2c(ccc3[nH]c(Cl)nc32)s1 [Example 25, 3-(7-Chloro-6H-imidazo[4′,5′:3,4]benzo[2,1-d]thiazol-2-ylamino)-4-isopropoxy-benzamide.HCl]"
410 nM,330 nM,3500 nM,500 nM,"CC(C)Oc1ccc(C(N)=O)cc1Nc1nc2c(ccc3[nH]c(CO)nc32)s1 [Example 21, 3-(7-Hydroxymethyl-6H-imidazo[4′,5′:3,4]-benzo[2,1-d]thiazol-2-ylamino)-4-isopropoxy-benzamide.HCl]"
170 nM,710 nM,2000 nM,300 nM,"CCCn1c(C)nc2c3nc(Nc4cc(C(N)=O)ccc4OC(C)C)sc3ccc21 [Example 36, 4-Isopropoxy-3-(7-methyl-6-propyl-6H-imidazo[4′,5′:3,4]benzo[2,1-d]thiazol-2-ylamino)-benzamide.HCl]"
130 nM,39 nM,530 nM,58 nM,"Cc1nc2c3nc(Nc4cc(C(N)=O)ccc4OC(C)C)sc3ccc2n1C [Example 27, 3-(6,7-Dimethyl-6H-imidazo[4′,5′:3,4]benzo[2,1-d]thiazol-2-ylamino)-4-isopropoxy-benzamide.HCl]"
120 nM,140 nM,4000 nM,110 nM,"CCn1c(C)nc2c3nc(Nc4cc(C(N)=O)ccc4OC(C)C)sc3ccc21 [Example 34, 3-(6-Ethyl-7-methyl-6H-imidazo[4′,5′:3,4]benzo[2,1-d]thiazol-2-ylamino)-4-isopropoxy-benzamide.HCl]"
55 nM,150 nM,430 nM,53 nM,"CCn1c(C)nc2ccc3sc(Nc4cc(C(N)=O)ccc4OC(C)C)nc3c21 [Example 35, 3-(8-Ethyl-7-methyl-8H-imidazo[4′,5′:3,4]benzo[2,1-d]thiazol-2-ylamino)-4-isopropoxy-benzamide.HCl]"

# — patent US20120129811A1, “TRICYCLIC INHIBITORS OF PRO-MATRIX METALLOPROTEINASE ACTIVATION” (priority 2010, published 2012)
